Reference: ChEMBL document CHEMBL1152236 (Bioorg Med Chem, 2008)

How the values were obtained:
Carbonic anhydrase 1 [1] = target: T1, Carbonic anhydrase 1 (Homo sapiens, UniProt P00915); experiment: Inhibition of human carbonic anhydrase 1 esterase activity by spectrophotometry
Carbonic anhydrase 1 [2] = target: T1, Carbonic anhydrase 1; experiment: Inhibition of human carbonic anhydrase 1 esterase activity by noncompetitive Lineweaver-Burke plot
Carbonic anhydrase 2 [3] = target: T2, Carbonic anhydrase 2 (Homo sapiens, UniProt P00918); experiment: Inhibition of human carbonic anhydrase 2 esterase activity by spectrophotometry
Carbonic anhydrase 1 [4] = target: T1, Carbonic anhydrase 1; experiment: Inhibition of human carbonic anhydrase 1 esterase activity by uncompetitive Lineweaver-Burke plot
Carbonic anhydrase 2 [5] = target: T2, Carbonic anhydrase 2; experiment: Inhibition of human carbonic anhydrase 2 esterase activity by competitive Lineweaver-Burke plot
Carbonic anhydrase 2 [6] = target: T2, Carbonic anhydrase 2; experiment: Inhibition of human carbonic anhydrase 2 esterase activity by non-competitive Lineweaver-Burke plot
Carbonic anhydrase 2 [7] = target: T2, Carbonic anhydrase 2; experiment: Inhibition of human carbonic anhydrase 2 esterase activity by uncompetitive Lineweaver-Burke plot
Carbonic anhydrase 1 [8] = target: T1, Carbonic anhydrase 1; experiment: Inhibition of human carbonic anhydrase 1 esterase activity by competitive Lineweaver-Burke plot

T1 sequence (P00915 whole entry): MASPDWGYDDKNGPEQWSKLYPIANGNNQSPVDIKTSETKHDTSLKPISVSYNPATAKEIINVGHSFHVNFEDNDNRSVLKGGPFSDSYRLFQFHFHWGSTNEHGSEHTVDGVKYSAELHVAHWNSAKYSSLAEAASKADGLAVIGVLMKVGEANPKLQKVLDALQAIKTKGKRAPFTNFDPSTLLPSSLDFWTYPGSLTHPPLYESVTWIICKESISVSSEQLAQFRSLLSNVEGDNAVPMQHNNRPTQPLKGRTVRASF

Row | Structure (SMILES) | IC50 (Carbonic anhydrase 1 [1]) | Ki (Carbonic anhydrase 1 [2]) | IC50 (Carbonic anhydrase 2 [3]) | Ki (Carbonic anhydrase 1 [4]) | Ki (Carbonic anhydrase 2 [5]) | Ki (Carbonic anhydrase 2 [6]) | Ki (Carbonic anhydrase 1 [8]) | Ki (Carbonic anhydrase 2 [7])
1 | O=C(O)c1c(O)cc([N+](=O)[O-])cc1[N+](=O)[O-] | 7.64 µM | 14.8 µM |  |  |  |  |  | 
2 | O=C(O)c1cc(Cl)ccc1O [5-CHLOROSALICYLIC ACID] | 4.07 µM |  |  | 4.16 µM |  |  |  | 
3 | O=C(O)c1cc(-c2ccc(F)cc2F)ccc1O [DIFLUNISAL] | 3.38 µM | 8.45 µM |  |  |  |  |  | 
4 | Cc1cccc(C(=O)O)c1O [HYDROXYTOLUIC ACID] | 3070 µM | 11400 µM | 4700 µM |  |  |  |  | 10600 µM
5 | O=C(O)c1cc(/N=N/c2ccc(S(=O)(=O)Nc3ccccn3)cc2)ccc1O [SULFASALAZINE] | 3.04 µM | 6.87 µM | 4.49 µM |  |  | 8.72 µM |  | 

Now from value to molecule, other results behind:

Row | IC50 (Carbonic anhydrase 1 [1]) | Ki (Carbonic anhydrase 1 [2]) | IC50 (Carbonic anhydrase 2 [3]) | Ki (Carbonic anhydrase 1 [4]) | Ki (Carbonic anhydrase 2 [5]) | Ki (Carbonic anhydrase 2 [6]) | Ki (Carbonic anhydrase 1 [8]) | Structure (SMILES) | Ki (Carbonic anhydrase 2 [7])
6 | 290 µM |  | 720 µM | 480 µM | 1060 µM |  |  | O=C(O)c1ccc(S(=O)(=O)O)cc1O | 
7 | 130 µM | 240 µM | 750 µM |  |  | 1230 µM |  | Nc1ccc(C(=O)O)c(O)c1 [AMINOSALICYLIC ACID] | 
8 | 2710 µM | 7530 µM |  |  |  |  |  | CC(=O)Oc1ccccc1C(=O)O [ASPIRIN] | 
9 | 420 µM |  | 290 µM |  |  | 1920 µM | 770 µM | O=C(O)c1cc(S(=O)(=O)O)ccc1O [SULFOSALICYLIC] | 
